Columns and labels:
[1] = tested on: A375 (skin) cancer cell lines; assay: AlamarBlue cytotoxicity assay, A375; format: cell-based; details: for IC50 / viability at 5 µg/mL / viability at 15 µg/mL / viability at 25 µg/mL / viability at 50 µg/mL / viability at 75 µg/mL / viability at 100 µg/mL: Homo sapiens; for IC50: A-375, 24 h; for IC50 / Cytotoxicity (IC50) A375: A375 cells, 24 h treatment, AlamarBlue, mean ± SD of three independent experiments; for viability at 5 µg/mL / viability at 15 µg/mL / viability at 25 µg/mL / viability at 50 µg/mL / viability at 75 µg/mL / viability at 100 µg/mL: A-375; for Selectivity index (SI) A375: ratio IC50 MRC5 / IC50 A375
Protocol: (§1) PC3, A375, and MRC5 cell lines were purchased from ATCC and were cultured in Dulbecco’s Modified Eagle Media (DMEM) supplemented with 10% Fetal Bovine Serum (FBS) (Highveld biological), 1% gentamycin and 1% penicillin/streptomycin (Sigma, USA).
(§2) The growth inhibitory effect and cytotoxicity of the compounds were tested in triplicate against two cancer cell lines (PC3 and A375) and one healthy cell line (MRC5), respectively using Alamar Blue assay.
(§3) PC3, A375, and MRC5 cell lines were cultured in 96 well tissue culture plates. […] Cells were treated for 24 h. […] Cell viability was measured using AlamarBlue and readings were obtained in terms of fluorescent values using a microplate reader (BioTek Synergy HT). Samples were exposed to an excitation wavelength of 530 nm and at the emission wavelength of 590 nm. Cell viability percentage was calculated using the formula below: Cellviability=absorbanceoftreatedcells-absorbanceofblank/absorbanceofuntreatedcells-absorbanceofblank×100%

[2] = AlamarBlue cytotoxicity assay, MRC5 normal cells; format: cell-based; details: human, MRC5 healthy lung cells, 24 h treatment, mean ± SD of three independent experiments
Protocol: as §1, with “USA). Cells were maintained at 37 °C under 5% of carbon dioxide (CO2) and 95% relative humidity.” for “USA).”
as §2
(§4) PC3, A375, and MRC5 cell lines were cultured in 96 well tissue culture plates. […] Cells were treated for 24 h. 10 µl of AlamarBlue (Thermo Fisher Scientific) was added to each well at 22 h after treatment and incubated for 2 h at 37 °C in the dark since AlamarBlue is light sensitive. Cell viability was measured using AlamarBlue and readings were obtained in terms of fluorescent values using a microplate reader (BioTek Synergy HT). Samples were exposed to an excitation wavelength of 530 nm and at the emission wavelength of 590 nm. Cell viability percentage was calculated using the formula below: Cellviability=absorbanceoftreatedcells-absorbanceofblank/absorbanceofuntreatedcells-absorbanceofblank×100%

[3] = tested on: PC3 (prostate) cancer cell lines; assay: AlamarBlue cytotoxicity assay, PC3; format: cell-based; details: for IC50: Homo sapiens, PC-3; for Selectivity index (SI) PC3: ratio IC50 MRC5 / IC50 PC3
Protocol: as §1, §2, §3

[4] = tested on: MRC5 (healthy lung) cell lines; assay: AlamarBlue cytotoxicity assay, MRC5 normal cells; format: cell-based; details: 24 h treatment, mean ± SD of three independent experiments
Protocol: as §1, with “USA). Cells were maintained at 37 °C under 5% of carbon dioxide (CO2) and 95% relative humidity.” for “USA).”
as §2, §4

[5] = PC3 cells, 24 h treatment, AlamarBlue, mean ± SD of three independent experiments

Row | SMILES | IC50 [1] [µg/mL] | viability at 5 µg/mL ([1]; A375, 5 µg/mL) [%] | viability at 15 µg/mL ([1]; A375, 15 µg/mL) [%] | viability at 25 µg/mL ([1]; A375, 25 µg/mL) [%] | viability at 50 µg/mL ([1]; A375, 50 µg/mL) [%] | viability at 75 µg/mL ([1]; A375, 75 µg/mL) [%] | viability at 100 µg/mL ([1]; A375, 100 µg/mL) [%] | Selectivity index (SI) A375 [1] | IC50 at 24 h [2] [µg/mL] | melting point [°C] | IC50 [3, 5] [µg/mL] | viability at 5 µg/mL ([3]; PC3, 5 µg/mL) [%] | viability at 15 µg/mL ([3]; PC3, 15 µg/mL) [%] | viability at 25 µg/mL ([3]; PC3, 25 µg/mL) [%] | viability at 50 µg/mL ([3]; PC3, 50 µg/mL) [%] | viability at 75 µg/mL ([3]; PC3, 75 µg/mL) [%] | viability at 100 µg/mL ([3]; PC3, 100 µg/mL) [%] | Selectivity index (SI) PC3 [3] | Cytotoxicity (IC50) A375 [1] [µg/mL] | Activity for the proliferation of the PC3 cancer cell lines (in words) [3] | further results
1 | O=C([O-])[C@H](Cc1c[nH]c2ccccc12)/N=C/c1ccccc1OCc1cn(-c2ccccc2)nn1.[Na+] [Compound 3, sodium (s,e)-3-(1H-indol-3-yl)-2-((2-((1-phenyl-1H-1,2,3-triazol-4-yl)methoxy)benzylidene)amino)propanoate] | 21.9 ± 0.52 | 68 | 57.7 | 42 | 23 | 14 | 9 | 3.95 | 86.4 ± 2.64 | 196 to 198 | 40.5 ± 1.06 | 77 | 65.3 | 58 | 44 | 22 | 16 | 2.13 |  |  | 
2 | O=C(O)CCC(/N=C/c1ccccc1OCc1cn(-c2ccccc2)nn1)C(=O)O (stereo in doubt) [Compound 2, (s,e)-2-((2-((1-phenyl-1H-1,2,3-triazol-yl)methoxy)benzylidene)amino)pentanedioic acid] | 36.1 to 40.4 | 75.7 | 67 | 53.3 | 34 | 20.7 | 14 | 2.36 | 85.3 ± 2.27 | 146 to 148 | 60.6 ± 1.42 | 90.3 | 81 | 71 | 56 | 36 | 28 | 1.41 | 36.12 ± 0.87 | moderate activity | 
3 | O=C(O)C(Cc1ccccc1)/N=C/c1ccccc1OCc1cn(-c2ccccc2)nn1 (stereo not drawn) [Compound 6, (e)-3-phenyl-2-((2-((1-phenyl-1H-1,2,3-triazol-4-yl)methoxy)benzylidene)amino)propanoic acid] |  |  |  |  |  |  |  | 3.85 |  |  |  |  |  |  |  |  |  | 2.07 | 24.18 ± 0.57 |  | Cell viability (%) ([1]; A375, 5 µg/mL): 68%; Cell viability (%) ([1]; A375, 15 µg/mL): 57.67%; Cell viability (%) ([1]; A375, 25 µg/mL): 45%; Cell viability (%) ([1]; A375, 50 µg/mL): 27%; Cell viability (%) ([1]; A375, 75 µg/mL): 16%; Cell viability (%) ([1]; A375, 100 µg/mL): 8%; Cytotoxicity (IC50) MRC5 [4]: 93.07 ± 2.42 µg/mL; Cell viability (%) ([3]; PC3, 5 µg/mL): 79%; Cell viability (%) ([3]; PC3, 15 µg/mL): 68%; Cell viability (%) ([3]; PC3, 25 µg/mL): 60%; Cell viability (%) ([3]; PC3, 50 µg/mL): 49%; Cell viability (%) ([3]; PC3, 75 µg/mL): 26%; Cell viability (%) ([3]; PC3, 100 µg/mL): 18%; Cytotoxicity (IC50) PC3 [3, 5]: 45.00 ± 1.12 µg/mL
4 | O=Cc1ccccc1OCc1cn(-c2ccccc2)nn1 [Compound 1, 2-((1-phenyl-1H-1,2,3-triazol-4-yl)methoxy)benzaldehyde] | 36.1 to 40.4 | 79 | 69 | 55 | 37 | 24 | 18 | 1.90 | 76.9 ± 1.87 | 147 to 149 | 75 ± 1.82 | 95 | 89 | 80 | 63 | 47 | 38 | 1.02 | 40.37 ± 1.03 |  | 
5 | O=C([O-])[C@H](Cc1ccc([O-])cc1)/N=C/c1ccccc1OCc1cn(-c2ccccc2)nn1.[Na+].[Na+] [Compound 4, sodium (s,e)-3-(4-oxidophenyl)-2-((2-((1-phenyl-1H-1,2,3-triazol-4-yl)methoxy)benzylidene)amino)propanoate] | 24.8 ± 0.61 | 68.7 | 59.7 | 45 | 25 | 16 | 11 | 3.56 | 88.4 ± 2.38 | 148 to 150 | 55.7 ± 1.28 | 84 | 78 | 70 | 56 | 34 | 21.3 | 1.59 |  | moderate activity | 

— publication PMC10960833, “1,2,3-triazole and chiral Schiff base hybrids as potential anticancer agents: DFT, molecular docking and ADME studies” (Scientific Reports, 2024)
